{
  "source": "paper PMC7288058",
  "about": "“Modulating the Properties of Fe(III) Macrocyclic MRI Contrast Agents by Appending Sulfonate or Hydroxyl Groups” (Molecules, 2020)",
  "key": {"[1]": {"conditions": "cited from earlier work; for relaxivity: 4.7 T printed for Fe(EDTA) only"}, "Balb/c mice [2]": {"test_system": "Balb/c mice", "parameters": "method as in PMID 31725934", "conditions": "cited from earlier work"}, "[3]": {"target": "T1, human serum albumin (HSA) (Homo sapiens, UniProt P02768)", "T1 construct": "Albumin from human serum (fatty acid free) was purchased from Sigma-Aldrich; purchased Sigma-Aldrich; host or cells: purified from human serum", "T1 sequence (P02768 25-609)": "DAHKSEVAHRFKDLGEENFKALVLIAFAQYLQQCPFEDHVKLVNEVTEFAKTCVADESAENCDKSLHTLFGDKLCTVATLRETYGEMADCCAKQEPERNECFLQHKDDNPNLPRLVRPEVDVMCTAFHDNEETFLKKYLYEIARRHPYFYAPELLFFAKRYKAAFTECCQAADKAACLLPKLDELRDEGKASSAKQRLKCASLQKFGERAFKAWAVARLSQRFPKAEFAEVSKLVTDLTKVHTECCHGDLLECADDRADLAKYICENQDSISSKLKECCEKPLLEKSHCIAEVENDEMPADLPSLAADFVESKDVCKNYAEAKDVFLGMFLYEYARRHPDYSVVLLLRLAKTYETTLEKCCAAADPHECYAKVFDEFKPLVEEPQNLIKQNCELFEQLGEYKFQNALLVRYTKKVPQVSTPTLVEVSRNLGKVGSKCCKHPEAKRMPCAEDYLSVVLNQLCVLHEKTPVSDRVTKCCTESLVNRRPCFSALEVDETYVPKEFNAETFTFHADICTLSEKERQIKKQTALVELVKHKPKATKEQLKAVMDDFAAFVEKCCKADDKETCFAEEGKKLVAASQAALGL", "test": "Binding to human serum albumin by ultrafiltration / ICP-MS", "type": "in vitro ADME", "conditions": "0.4 mM complex, HSA 4.5% (w/v) (0.7 mM), 20 mM HEPES pH 7.4, 100 mM NaCl, 37 °C, 20 min", "description": "Binding of the Fe(III) complexes to human serum albumin (HSA) was studied by using ultrafiltration across a MW 5000 cutoff membrane. The solutions containing HEPES buffer (pH 7.4) and salt NaCl were incubated at 37 °C for 20 min. Solutions contained 0.4 mM Fe(III) complex and 4.5 % (w/v) HSA (0.7 mM). The binding percentages were measured by using ICP-MS to analyze the Fe concentration in the unbound complex solutions after HSA incubation (Table 1). The protein binding for Fe(L3)(OH2) was higher (75%) than for Fe(L1)(OH2) (37%) or Fe(L2) (11%).\nThe molecular weight of 66,435 Da was used to determine the molar concentrations of HSA. Fe(III) complex (0.400 mM) solutions were incubated with 4.5% (w/v) HSA in 0.100 M NaCl and 20.0 mM HEPES buffer (pH 7.4). All solutions were incubated at 37 °C for 20 min [42]. Aliquots (0.300 mL) were placed in ultra-centrifugal filter units with a 5-kDa membrane and centrifuged at 3500× g for 10 min. The filtrates were used to determine Fe concentration from digested unbound Fe(III) complexes by using ICP-MS."}, "[4]": {"parameters": "method as in PMID 31725934", "conditions": "comparison complex, no titration described in this paper; cited from earlier work"}, "[5]": {"conditions": "'was reported', reference not given, cited from earlier work"}, "Balb/c mice [6]": {"test_system": "Balb/c mice", "test": "Dynamic T1-weighted MRI in mice after tail vein injection (4.7 T)", "type": "in vivo", "conditions": "healthy mouse, 0.05 mmol/kg, kidneys/blood, up to 45 min", "source_text": "The two new Fe(III) complexes, Fe(L1)(OH2) and […], and the Gd(III) agent, Gd(DOTA), were studied in Balb/c mice on a small animal 4.7-T MRI scanner upon tail vein injection of the agent (Figure S24, Supplementary Materials). […] Biodistribution and pharmacokinetic clearance of the complexes in mice were monitored by using dynamic MRI.\nIn vivo imaging studies with the Fe(III) complexes were studied on at 4.7 T Bruker preclinical MRI in mice (BABC/cJ, Jackson Laboratory) in accordance with approved Institutional Animal Care and Use Committee (IACUC) protocols. The samples with a concentration of 0.050, 0.100, and 0.200 mmol [Fe]/kg. The Fe(III) complex stock solutions were adjusted to pH 7.2 by addition of meglumine and were injected intravenously via tail vein. MR data were recorded continuously for up to 1 h. Distribution studies and clearance kinetics were studied by using MR data acquired over several time points for up to 1 h, and additionally at 4 h and 24 h. For comparison, The Food and Drug Administration (FDA)-approved MRI contrast agent gadopentetate dimeglumine (Gd(DTPA), Magnevist®) and gadoterate meglumine (Gd(DOTA), Dotarem®) were injected at 50.0 μmol [Gd]/kg into separate group of mice and imaged as above."}, "[7]": {"parameters": "method as in PMID 31725934", "conditions": "100 mM HCl, cited from earlier work"}, "[8]": {"parameters": "method as in PMID 31725934", "conditions": "1-octanol/water; cited from earlier work"}},
  "note": "Several values for one entry are separate records, joined by “and”; a condition that tells them apart may be missing. Equal values may be shown once. Read-outs that look alike come from different tables or passages of the source.",
  "data": [
    {"smiles": "C[C@H]([O-])CN1CCN(Cc2ccccc2)CCN(C[C@H](C)O)CC1.O.[Fe+3]", "note": "[Fe(L3)(OH2)]", "values": [
      {"measurement": "r2 4.7 T", "setting": "[1]; 4.7 T", "result": "4.5 ± 1.1", "unit": "mM⁻¹ s⁻¹"},
      {"measurement": "r1 4.7 T", "setting": "[1]; buffer, pH 7.4, 37 °C, 4.7 T", "result": "2.2 mM⁻¹ s⁻¹ and 2.2 ± 0.30 mM⁻¹ s⁻¹"},
      {"measurement": "r1 in HSA 4.7 T", "setting": "[1]; in HSA, 4.7 T", "result": "2.5 ± 0.10", "unit": "mM⁻¹ s⁻¹"},
      {"measurement": "r2 in HSA 4.7 T", "setting": "[1]; in HSA, 4.7 T", "result": "4.2 ± 0.70", "unit": "mM⁻¹ s⁻¹"},
      {"measurement": "duration of enhanced kidney contrast", "setting": "Balb/c mice [2]", "result": "up to four hours"},
      {"measurement": "HSA Binding (%)", "setting": "[3]", "result": "75% and 75.1 ± 3.7%"},
      {"measurement": "Log K1 (pKa2)", "setting": "[4]", "result": "7.17 ± 0.01"},
      {"measurement": "electrode potential (E1/2) vs. Ag/AgCl", "setting": "[5]; pH 3", "result": 112, "unit": "mV"},
      {"measurement": "electrode potential (E1/2) vs. NHE", "setting": "[5]; pH 3", "result": 400, "unit": "mV"},
      {"measurement": "electrode potential (E1/2) vs. Ag/AgCl", "setting": "[5]; pH 7", "result": "−588", "unit": "mV"},
      {"measurement": "electrode potential (E1/2) vs. NHE", "setting": "[5]; pH 7", "result": "−300", "unit": "mV"},
      {"measurement": "T1-weighted contrast enhancement compared with other agents", "setting": "Balb/c mice [6]", "result": "much stronger than that of Fe(L1)(OH2) or Gd(DOTA)"},
      {"measurement": "dissociation in acidic solution", "setting": "[7]; over 24 h", "result": 14, "unit": "%"},
      {"measurement": "dissociation in acidic solution", "setting": "[7]; over 72 h", "result": 38, "unit": "%"},
      {"measurement": "Log P", "setting": "[8]", "result": "−0.13"}
    ]},
    {"smiles": "CNC[C@H](O)[C@@H](O)[C@H](O)[C@H](O)CO.O=C([O-])CN1CCN(CC(=O)[O-])CCN(CC(=O)O)CCN(CC(=O)[O-])CC1.[Gd+3]", "note": "[Gd(DOTA), gadoterate meglumine]", "values": [
      {"measurement": "r1 4.7 T", "setting": "[1]; 4.7 T", "result": "2.8 ± 0.10", "unit": "mM⁻¹ s⁻¹"},
      {"measurement": "r2 4.7 T", "setting": "[1]; 4.7 T", "result": "3.7 ± 0.20", "unit": "mM⁻¹ s⁻¹"}
    ]},
    {"smiles": "O=C([O-])CN(CCN(CC(=O)[O-])CC(=O)[O-])CCN(CC(=O)[O-])CC(=O)[O-].[Fe+3]", "note": "[Fe(DTPA)]", "values": [
      {"measurement": "relaxivity", "setting": "[1]", "result": 0.51, "unit": "mM⁻¹ s⁻¹"}
    ]},
    {"smiles": "O=C([O-])CN(CCN(CC(=O)[O-])CC(=O)[O-])CC(=O)[O-].[Fe+3]", "note": "[Fe(EDTA)]", "values": [
      {"measurement": "relaxivity", "setting": "[1]", "result": 1.4, "unit": "mM⁻¹ s⁻¹"}
    ]},
    {"smiles": "CNC[C@H](O)[C@@H](O)[C@H](O)[C@H](O)CO.CNC[C@H](O)[C@@H](O)[C@H](O)[C@H](O)CO.O=C([O-])CN(CCN(CC(=O)[O-])CC(=O)O)CCN(CC(=O)[O-])CC(=O)O.[Gd+3]", "note": "[Gd(DTPA), gadopentetate dimeglumine]", "values": [
      {"measurement": "r1 9.4 T", "setting": "[1]; 9.4 T", "result": 2.5, "unit": "mM⁻¹ s⁻¹"},
      {"measurement": "r1 4.7 T", "setting": "[1]; buffer, pH 7.4, 37 °C, 4.7 T", "result": 3.1, "unit": "mM⁻¹ s⁻¹"},
      {"measurement": "r1 in HSA 4.7 T", "setting": "[1]; in HSA, 4.7 T", "result": 3.2, "unit": "mM⁻¹ s⁻¹"}
    ]}
  ]
}
